Measurements: patent US12419889B2, “Methods of treating chronic spontaneous urticaria using a bruton's tyrosine kinase inhibitor” (NOVARTIS AG, priority 2019, dated 2025)

Experiments:
[1] = First-in-human study, blood and urine PK (SAD, MAD q.d., b.i.d.); format: in vivo; conditions: for drug accumulation ratio (Racc): MAD q.d.
Procedure: A first-in-human study was conducted to assess the safety and tolerability, pharmacokinetics (PK) and pharmacodynamics (PD) of single and multiple doses of compound (I) both as once daily (qd) and twice daily (bid) oral administration in healthy volunteers and those with atopic diathesis, to support further clinical development of compound (I) in autoimmune diseases. This study also explored the effect of food intake.
First-in-human study in up to approximately 168 healthy volunteers (HVs), of which 64 (in Parts 2 & 4) had asymptomatic atopic diathesis. • Part 1 was a double-blind (subject and investigator blind, sponsor unblinded), placebo-controlled single ascending dose (SAD) escalation study of 10 cohorts (N=80) • Part 2 was a double-blind (subject and investigator blind, sponsor unblinded), placebo-controlled multiple ascending dose (MAD) (13 doses over 12 days) escalation study employing once daily dosing in 6 cohorts in healthy volunteers with asymptomatic atopic diathesis (N=48) • Part 3 was a single dose open-label crossover food effect study in 12 HVs • Part 4 was a double-blind (subject and investigator blind, sponsor unblinded), placebo-controlled multiple dose (25 doses over 12 days) study employing twice daily dosing in 2 cohorts of healthy volunteers with asymptomatic atopic diathesis (N=16)
The SAD part (Part 1) had ten dose levels and the MAD parts (Parts 2 & 4) consisted of eight dose levels (6 cohorts using single daily dosing in Part 2 and 2 cohorts using twice daily dosing in Part 4). Eight subjects were randomized into each cohort to receive either compound (I) or matching placebo in a 6:2 (active: placebo) ratio in the SAD and MAD parts. Within the SAD part, doses up to approximately 4 times the estimated pharmacologically active dose (PAD) were to be evaluated before the MAD part of the study was started, providing there was no safety signal emerging from the SAD part until then.
In Part 1, subjects were admitted to the study site on Day −2 or −1 for baseline safety assessments and to confirm eligibility. Eligible subjects received a single dose of compound (I) or placebo under fasting conditions on Day 1. They were domiciled from Day −1 to the morning of Day 5 (96 hours post last drug administration).
In Parts 2 and 4, subjects were admitted on Day −2 or −1 for baseline safety assessments and to confirm eligibility. Eligible subjects received the first dose of compound (I) under fasting conditions on Day 1, and continued to take study medication under fasting conditions up to and including Day 12. Subjects were domiciled from Day −2 or −1 until the morning of Day 16, which equals 96 hours after the last dose of compound (I) was received. In Parts 2 and 4, the study medication was given once daily and twice daily respectively (details are found in the schedule of assessments).
Subjects were assigned to one of the following 10 cohorts. In each cohort, 8 subjects were randomized to either compound (I) or matching placebo in an overall 6:2 ratio. The first sub-cohort was randomized in a 1:1 ratio as one subject on compound (I) and one on matching placebo. […]

[2] = First-in-human study Part 3, food effect PK; format: in vivo
From the text: Part 3 was an open-label, randomized, two-way cross-over, single dose study to assess food effects. In Part 3, each subject participated in a 28 day screening period (Day −29 to −2), 2 baseline (Day −1) and 2 treatment periods, each consisting of a single dose administration on Day 1 followed by safety and PK assessment up to Day 5. Treatment period 2 consisted of a follow-up visit and an end of study evaluation on Day 22 and 40, respectively. The two treatment periods were separated by a wash-out period of at least 18 days (+1-1 day).
Subjects were randomized to one of the 2 treatment sequences (Table 9) in the ratio of 1:1. Definition of treatment sequences for Part 3
Pharmacokinetic samples were obtained in blood and evaluated in all subjects at all dose levels. The samples from placebo subjects were not analyzed. The samples for PK assessments from subjects were collected at time points defined in the study. Compound (I) concentrations were determined in blood by a validated LC-MS/MS method.

[3] = Safety and tolerability in healthy volunteers; format: in vivo, human
Procedure: Standard safety monitoring was used throughout all study parts. A dedicated assessment of potential skin bruising events were included. All vital signs, physical examination and subject history, ECGs, adverse events, and laboratory safety parameters (blood chemistry, hematology and urinalysis) up to 96 hours post last dose as well as PK data from the previous dose group (if available) up to 48 hours post last dose were to be reviewed in a blinded fashion for each cohort before dose escalation. Summary safety reports of reported adverse events, clinical safety laboratory parameters, QTc and heart rate were provided after completion of each dose level.
For the analysis of adverse effects, the Placebo subjects from all SAD and MAD cohorts (2 per cohort) and separated by the SAD and MAD parts were pooled into one Placebo group (n=20 for SAD and n=16 for MAD) to be compared with each single compound (I) dose group (n=6 each) and the total compound (I) group (n=60 for SAD and n=48 for MAD). There were no apparent major differences in the demographic data between placebo and the active groups both for the SAD and MAD populations.

C=CC(=O)N(C)CCOc1c(N)ncnc1-c1cc(F)cc(NC(=O)c2ccc(C3CC3)cc2F)c1C [Compound (I), N-(3-(6-Amino-5-(2-(N-methylacrylamido)ethoxy)pyrimidin-4-yl)-5-fluoro-2-methylphenyl)-4-cyclopropyl-2-fluorobenzamide]
Renal clearance, mean ± SD ([1]; Day 12, 400 mg qd): 16.9 ± 7.13 mL/min
drug accumulation ratio (Racc) ([1]; day 12 vs day 1, high dose): 1.2
drug accumulation ratio (Racc) ([1]; day 12 vs day 1, low dose): 5
MRT, median ([1]; blood, Day 1, 10 mg qd): 0.766 h
MRT, median ([1]; blood, Day 1, 25 mg qd): 1.17 h
AUC0-24, median ([1]; blood, Day 1, 600 mg qd): 932 ng·h/mL
CLss/F, mean ± SD ([1]; blood, Day 12, 10 mg qd): 425 ± 64.8 L/h
CLss/F, median (min-max) ([1]; blood, Day 12, 10 mg qd): 423 (341-529) L/h
AUC0-24, mean ± SD ([1]; blood, Day 12, 25 mg qd): 117 ± 60.9 ng·h/mL
AUClast, mean ± SD ([1]; blood, Day 12, 25 mg qd): 114 ± 59.7 ng·h/mL
CLss/F, mean ± SD ([1]; blood, Day 12, 25 mg qd): 307 ± 253 L/h
CLss/F, median (min-max) ([1]; blood, Day 12, 25 mg qd): 248 (129-809) L/h
AUC0-24, mean ± SD ([1]; blood, Day 12, 50 mg qd): 209 ± 80.2 ng·h/mL
AUC0-24, median (min-max) ([1]; blood, Day 12, 50 mg qd): 181 (127-325) h * ng/mL
CLss/F, mean ± SD ([1]; blood, Day 12, 50 mg qd): 268 ± 92.8 L/h
CLss/F, median (min-max) ([1]; blood, Day 12, 50 mg qd): 276 (154-395) L/h
CLss/F, mean ± SD ([1]; blood, Day 12, 100 mg qd): 198 ± 88.7 L/h
CLss/F, median (min-max) ([1]; blood, Day 12, 100 mg qd): 166 (129-298) L/h
CLss/F, mean ± SD ([1]; blood, Day 12, 400 mg qd): 366 ± 150 L/h
CLss/F, median (min-max) ([1]; blood, Day 12, 400 mg qd): 351 (177-591) L/h
CLss/F, mean ± SD ([1]; blood, Day 12, 600 mg qd): 521 ± 131 L/h
CLss/F, median (min-max) ([1]; blood, Day 12, 600 mg qd): 569 (345-661) L/h
Cmax, median (min-max) ([1]; blood, Day 12, 600 mg qd): 475 (377-985) ng/mL
increase of Cmax from 100 mg to 200 mg b.i.d. ([1]; day 12): 1.33 fold
oral blood clearance CL/F, estimate across all cohorts ([1]; single dose, all SAD cohorts): about 383 L/h
Tmax ([2]; human, whole blood, single oral dose 60 mg, fasted): 1 h
AUC0-24, GeoMean ([2]; single dose 60 mg, FAST): 182.08 ng·h/mL
AUClast, GeoMean ([2]; single dose 60 mg, FAST): 177.17 ng·h/mL
Tlast, GeoMean ([2]; single dose 60 mg, FAST): 9.66 h
Tlast, Mean ([2]; single dose 60 mg, FAST): 10.50 h
Tmax, Mean ([2]; single dose 60 mg, FAST): 1.02 h
Tlast, GeoMean ([2]; single dose 60 mg, FED): 9.25 h
Tlast, Mean ([2]; single dose 60 mg, FED): 9.50 h
higher AUC0-24 fed vs fasted ([2]; single oral dose 60 mg): 1.4 fold
lower Cmax fed vs fasted ([2]; single oral dose 60 mg): 1.25 fold
serious or severe adverse events related to intake ([3]; 0.5 mg to 600 mg): no serious or severe adverse event
tolerability ([3]; 0.5 mg to 600 mg, single dose or up to 18 days once or twice daily): well tolerated
safety assessment of the FIH study ([3]; dosing up to 600 mg): does not reveal significant safety concerns
